Bridges are numbered along the chain shown (N, C = ends). Where no end group is shown, it is not given here.
Tests used:
daf-4 ECD = molecular target: T1, daf-4 ECD (Caenorhabditis elegans, UniProt P50488); assay: BMP binding to purified daf-4 ECD (ligand blot, Scatchard analysis); parameters: species or system C. elegans
T1 construct: 1 includes additional portions on the N and C terminus; made in house; host or cells: transfected DHFR(-) CHO cell line PJ511.9.8, purified from conditioned medium
T1 sequence (P50488 with tags, fused parts or gaps): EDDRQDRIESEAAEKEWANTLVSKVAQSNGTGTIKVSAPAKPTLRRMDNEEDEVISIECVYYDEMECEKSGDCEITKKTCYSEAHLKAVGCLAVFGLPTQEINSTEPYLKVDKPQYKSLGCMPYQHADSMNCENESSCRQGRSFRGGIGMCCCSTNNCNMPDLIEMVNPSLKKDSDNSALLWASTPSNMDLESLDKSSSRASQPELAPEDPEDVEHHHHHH
Description: A novel ligand-blot technique was developed to evaluate the binding of BMP-7 to the purified daf-4 ECD.

[1] = tested on: BMP-7 induced and basal alkaline phosphatase activity in ROS cells (rat Osteosarcoma 17/2.8); assay: ROS cell based alkaline phosphatase assay; settings: for IC50: peptide together with BMP-7 (1.33 nM), ROS cells, 2 days, read-out: peptide concentration giving 50% inhibition of cellular responsiveness to BMP-7
Procedure: ROS Cell Based Alkaline Phosphatase Assays: BMP-7 and test agents that bind BMP-7 receptors were analyzed by in vitro bioassay. This assay defines the role of these test agents at the receptor-binding site. It is believed that some of the test agents can effectively interact with receptors and inhibit BMP-7 induced target cell responsiveness, thereby acting as functional antagonists. Alternatively, these agents may mimic BMP-7 functions inducing alkaline phosphatase activity in ROS cells, thus acting as functional agonists. An assay procedure as described by Maliakal, J. C., et al., Growth Factors 11, 227-234, (1994) determined the biological activities of BMP-7 peptides. In a typical experiment, rat Osteosarcoma (17/2.8) cells were plated in 96 well plates (3.0×10^4 cells/well) and incubated overnight at 37 C in 5-6% CO2 incubator. Next day, the plates were examined to make sure that cells are healthy & confluent. Cells were treated with increasing concentrations of BMP-7 standard (1-10,000 ng/ml) or test agents (0.02-200 μM) or appropriate concentrations of test agent alone or with BMP-7 standard prepared in medium containing 1% FBS and incubated for 2 days at 37 C in 5-6% CO2 incubator. The cellular content of alkaline phosphatase activity was determined by the method of Reddi, A. H. & Huggins, C. B. Proc. Natl. Acad. Sci. USA 69, 1601-1605 (1972). Enzyme estimations were routinely carried out in 96 well plates. Following removal of culture medium, cells were washed with pre-warmed PBS (150 μl) and further incubated in 100 μl of pre-warmed 1% Triton X-100 for 30 minutes at 37 C. Plates were centrifuged for 10 minutes at full speed, and recovered samples (each 15 μl) were assayed for enzyme activity by adding 90 μl p-nitrophenyl phosphate (Sigma, St. Louis, Mo.) as a substrate in 0.05 M glycine-NaOH buffer, pH 9.3 and incubating for 20 minutes at 37 C. The reaction was stopped by adding 75 ul of 0.2 N NaOH/well and absorbance at 405/490 nm is measured on a Dynatech MR 700 plate reader (Dynatech Laboratories, U.K.). Results are expressed as concentration of peptide/small molecule inhibitor (with antagonist activity) required to give 50% inhibition of maximum response to BMP-7 standard. The activities of test agents that stimulate cell responsiveness (with agonist activity), are expressed relative to BMP-7 standard.

[2] = tested on: BMP-7 receptor-enriched plasma membrane fraction of ROS cells; assay: Radio-ligand receptor assay (displacement of 125I-labeled BMP-7); type: binding, rat
Procedure: Radio-ligand receptor Assay: The receptor-binding activities of various BMP ligands (New York Public Health Labs, Albany, N.Y.) were determined by an equilibrium displacement binding isotherm assay using BMP-7 receptor-enriched plasma membrane fraction of ROS cells (ATCC 17-2.8) and ^125I-labeled BMP-7 (NEN, Billerica, Mass.) as ligand. Purified BMP-7 was radio-iodinated BMP-7 to a specific activity of 70-78 uCi/ug by a modified procedure of lactoperoxidase method (Schneyer, A. L., et al., Endocrinology 119, 1446-1453 (1986)). The percent bindability of radioiodinated BMP-7 to excess receptor is 30-37%. Receptors from ROS cells are obtained by a procedure previously described (Dattatreyamurty, B., et al., (1986) J. Biol. Chem. 261.). […] In a typical assay, fixed amounts of ^125I-labeled sol. BMP-7 (−80.000 cpm) were incubated with a fixed amount of receptor-enriched plasma membrane fraction in the presence (5 ug. for non-specific binding) or absence of excess unlabeled BMP-7 (for total binding). Displacement curves were generated with increasing concentrations of BMP-7 standard preparation (5-2000 ng). The assay incubations were carried out in a reaction volume of 300 μl with shaking for 22 hrs. at 4° C. Bound and unbound ^125I-labeled BMP-7 were separated by centrifugation (30,500×g. 30 minutes). The supernatants were aspirated and pellets washed before counting in a gamma counter (Packard Instr. Downers Grove, Ill.). The concentration of test agent required to give 50% inhibition of total specific binding of ^125I-labeled BMP-7 ^(ED50^) was calculated from competitive data.

[3] = lower peptide concentrations (0.6-60 μM)

| Substance | IC50 [1] | effect on basal cell responsiveness (basal alkaline phosphatase activity) ([1]; peptide alone) | behaviour of peptide on BMP-7 induced cell responsiveness ([1]; peptide together with BMP-7) | further results |
| --- | --- | --- | --- | --- |
| BMP-4: bone morphogenetic protein |  |  |  | binding to extracellular domain of daf-4 (daf-4 ECD): readily binds |
| H-1: CAFPLNSYMNATNHAIVQTLVHFINPETVPKC SEQ ID NO 5; heel peptide, cyclized (disulfide 1-32 (inferred); listed as Homo sapiens) [Peptide H-1] |  | effective only at very high concentrations | weak antagonist | concentrations required to inhibit the BMP-7 induced cell response ([1]; peptide together with BMP-7): 44 to 220 µM |
| CYFDDSSNVIC SEQ I.D NO. 7; 9 residues, ends cyclized (disulfide 1-11 (inferred); listed as Homo sapiens) [Peptide F2-2] |  |  |  | effect on responsiveness to BMP-7 at higher concentrations ([1]; higher peptide concentrations (above 0.6-60 μM)): inhibited; behaviour of peptide on BMP-7 induced cell responsiveness at lower concentrations [1, 3]: weak agonist; potentiation of BMP-7 induced cell responsiveness [1, 3]: 20% |
| CCFINPETVCC, SEQ I.D NO. 6; cyclized (disulfide (positions not given here); also: cyclized (mode not given here); listed as Homo sapiens) [Peptide H-2C] | 5 µM | inhibiting | antagonist | effect on binding of 125I-labeled BMP-7 to the receptor ([2]; peptide at 8 μM): potentiated |
| F2-2c: CIVNSSDDFYC SEQ I.D NO. 8; control peptide, residues of F2-2 in reverse order (disulfide 1-11 (inferred); listed as Homo sapiens) [Peptide F2-2c, reference compound] |  | no effect | no effect | activity in radioligand receptor assay [2]: inactive |

The next lines start with results.

| IC50 [1] | Substance | effect on basal cell responsiveness (basal alkaline phosphatase activity) ([1]; peptide alone) | behaviour of peptide on BMP-7 induced cell responsiveness ([1]; peptide together with BMP-7) | further results |
| --- | --- | --- | --- | --- |
| 8 µM | CLNAISVLYFDDSSNVILKKYRNMVVRC, SEQ ID NO. 10; cyclized (disulfide 1-28 (inferred); listed as Homo sapiens) [Peptide F2-1] | effectively inhibited | effectively inhibited |  |
| 20 µM | CELYVSFRDLGWQDWIIAPEGYAAYC, SEQ I.D NO. 3; BMP-7 finger 1 peptide with cyclized ends (disulfide 1-26 (inferred); listed as Homo sapiens) [Peptide F1-1] |  | antagonist | peptide concentration effective to inhibit basal cellular responsiveness ([1]; peptide alone): 52 to 260 µM |
| 10 µM | CFRDLGWQDWIIAPC, SEQ I.D NO. 4; 15 residue peptide cyclized at the ends (disulfide 1-15 (inferred); listed as Homo sapiens) [Peptide F1-2] | weakly inhibiting | antagonist | activity in radioligand receptor assay [2]: relatively weak activity; concentration required to inhibit the binding of 125I-labeled BMP-7 to the receptor ([2]; ROS cell plasma membranes): 179 µM |

Source: patent US20110081662A1, “SCREENING METHODS FOR BONE MORPHOGENETIC MIMETICS” (THRASOS THERAPEUTICS, INC., priority 2000, published 2011)
